Experimental data reported in patent US9067889B2, “Biphenylcarboxamides as ROCK kinase inhibitors” (Amakem NV, priority 2011, dated 2015).

Legend:
[1] = Stability assay in human plasma; format: in vitro ADME; settings: 1 μM compound in human plasma, LC-MS/MS
Protocol: C.2.1. Stability Assay in Human and/or Rat Plasma
Compounds are incubated at a concentration of 1 μM in human plasma (or rat, mice, dog, monkey, minipig or rabbit). Samples are taken at fixed time points and the remnant of compound is determined by LC-MS/MS after protein precipitation.

[2] = Stability assay in rabbit aqueous humor; format: in vitro ADME; settings: 1 μM compound in rabbit aqueous humor, LC-MS/MS
Protocol: C.2.2. Stability Assay in Rabbit Aqueous Humor
Compounds are incubated at a concentration of 1 μM in rabbit aqueous humor (AH). Samples are taken at fixed time points and the remnant of compound is determined by LC-MS/MS after protein precipitation.

t1/2(min) in human plasma [1]: <60 min | t½ rabbit AH [2]: 58 min
Structure (SMILES): COC(=O)Cc1cccc(NC(=O)c2cccc(-c3cc(C(=O)Nc4ccncc4F)ccc3CN)c2)c1 [Compound 1]
